Test results published in ChEMBL document CHEMBL3351376, “Design, synthesis, and structure-activity relationship of novel opioid κ receptor selective agonists: α-iminoamide derivatives with an azabicyclo[2.2.2]octene skeleton” (Bioorg Med Chem Lett, 2014).

Columns and labels:
[1] = target: Kappa-type opioid receptor (Cavia porcellus, UniProt P41144); test: Displacement of [3H]U-69593 from kappa opioid receptor in guinea pig cerebellum
[2] = Selectivity ratio of Ki for mu opioid receptor in mouse brain membranes without cerebellum to Ki for kappa opioid receptor in guinea pig cerebellum; type: cell membranes
[3] = target: Delta-type opioid receptor (Mus musculus, UniProt P32300); test: Displacement of [3H]DPDPE from delta opioid receptor in mouse brain membranes without cerebellum; type: cell membranes, Membrane
Delta-type opioid receptor (Mus musculus, UniProt P32300), sequence (P32300 whole entry): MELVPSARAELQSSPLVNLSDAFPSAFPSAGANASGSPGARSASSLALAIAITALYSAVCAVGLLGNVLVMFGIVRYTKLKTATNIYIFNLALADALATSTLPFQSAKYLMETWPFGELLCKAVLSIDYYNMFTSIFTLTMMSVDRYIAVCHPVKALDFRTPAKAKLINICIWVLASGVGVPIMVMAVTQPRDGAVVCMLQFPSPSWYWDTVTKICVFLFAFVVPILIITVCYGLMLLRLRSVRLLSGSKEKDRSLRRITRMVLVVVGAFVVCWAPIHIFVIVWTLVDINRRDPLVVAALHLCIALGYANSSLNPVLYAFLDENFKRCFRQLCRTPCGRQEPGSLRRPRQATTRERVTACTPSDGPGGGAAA

Mu-type opioid receptor [4] = target: Mu-type opioid receptor (Mus musculus, UniProt P42866); test: Displacement of [3H]DAMGO from mu opioid receptor in mouse brain membranes without cerebellum; type: cell membranes, Membrane
Mu-type opioid receptor (Mus musculus, UniProt P42866), sequence (P42866 whole entry): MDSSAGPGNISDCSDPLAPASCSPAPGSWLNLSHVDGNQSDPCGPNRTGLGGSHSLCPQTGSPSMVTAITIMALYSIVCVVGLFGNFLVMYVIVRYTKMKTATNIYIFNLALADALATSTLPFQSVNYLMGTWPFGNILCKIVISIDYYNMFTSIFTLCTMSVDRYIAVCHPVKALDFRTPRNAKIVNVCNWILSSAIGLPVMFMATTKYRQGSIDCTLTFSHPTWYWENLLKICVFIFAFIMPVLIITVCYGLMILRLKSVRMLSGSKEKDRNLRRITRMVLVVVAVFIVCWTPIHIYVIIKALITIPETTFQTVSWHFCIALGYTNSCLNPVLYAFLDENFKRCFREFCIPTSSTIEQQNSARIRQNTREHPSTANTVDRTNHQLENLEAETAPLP

Mu-type opioid receptor [5] = target: T1, Mu-type opioid receptor (Homo sapiens, UniProt P35372); test: Agonist activity at human mu opioid receptor expressed in CHO cells by [35S]GTPgammaS binding assay relative to DAMGO; type: functional, cell-based
T1 sequence (P35372 whole entry): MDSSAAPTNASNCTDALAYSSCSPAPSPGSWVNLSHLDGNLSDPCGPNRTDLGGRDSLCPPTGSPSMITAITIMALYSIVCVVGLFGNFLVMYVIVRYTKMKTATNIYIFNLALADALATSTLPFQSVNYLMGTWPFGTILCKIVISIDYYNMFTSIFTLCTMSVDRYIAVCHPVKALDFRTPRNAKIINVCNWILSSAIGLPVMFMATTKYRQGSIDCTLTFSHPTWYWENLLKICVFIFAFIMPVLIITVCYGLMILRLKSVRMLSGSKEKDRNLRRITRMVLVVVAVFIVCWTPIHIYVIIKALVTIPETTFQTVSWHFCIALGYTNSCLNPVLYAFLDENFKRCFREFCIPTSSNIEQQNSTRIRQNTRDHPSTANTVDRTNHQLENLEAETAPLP

Mu-type opioid receptor [6] = target: T1, Mu-type opioid receptor; test: Agonist activity at human mu opioid receptor expressed in CHO cells by [35S]GTPgammaS binding assay; type: functional, cell-based
[7] = target: T2, Delta-type opioid receptor (Homo sapiens, UniProt P41143); test: Agonist activity at human delta opioid receptor expressed in CHO cells by [35S]GTPgammaS binding assay; type: functional, cell-based
T2 sequence (P41143 whole entry): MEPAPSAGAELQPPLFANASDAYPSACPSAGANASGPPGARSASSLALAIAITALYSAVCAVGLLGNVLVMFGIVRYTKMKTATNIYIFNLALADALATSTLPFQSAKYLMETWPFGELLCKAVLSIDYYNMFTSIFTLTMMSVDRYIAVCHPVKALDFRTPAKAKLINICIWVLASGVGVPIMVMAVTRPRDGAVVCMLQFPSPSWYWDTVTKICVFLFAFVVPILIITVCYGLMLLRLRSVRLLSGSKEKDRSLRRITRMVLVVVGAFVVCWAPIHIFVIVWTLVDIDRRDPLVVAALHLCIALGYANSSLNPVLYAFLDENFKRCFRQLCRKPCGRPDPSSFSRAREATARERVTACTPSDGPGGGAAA

[8] = target: T3, Kappa-type opioid receptor (Homo sapiens, UniProt P41145); test: Agonist activity at human kappa opioid receptor expressed in CHO cells by [35S]GTPgammaS binding assay; type: functional, cell-based
T3 sequence (P41145 whole entry): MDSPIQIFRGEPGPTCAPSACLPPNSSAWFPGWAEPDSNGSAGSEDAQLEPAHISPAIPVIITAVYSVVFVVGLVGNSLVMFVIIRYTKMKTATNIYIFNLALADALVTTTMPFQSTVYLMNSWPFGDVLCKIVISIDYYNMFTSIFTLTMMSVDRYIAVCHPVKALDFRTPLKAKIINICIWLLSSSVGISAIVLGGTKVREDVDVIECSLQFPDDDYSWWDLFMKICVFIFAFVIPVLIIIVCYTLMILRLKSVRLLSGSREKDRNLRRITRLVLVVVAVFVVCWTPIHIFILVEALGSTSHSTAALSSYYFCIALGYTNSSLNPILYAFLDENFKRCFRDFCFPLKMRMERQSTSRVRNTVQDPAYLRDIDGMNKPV

[9] = target: T3, Kappa-type opioid receptor; test: Agonist activity at human kappa opioid receptor expressed in CHO cells by [35S]GTPgammaS binding assay relative to U-69593; type: functional, cell-based
[10] = target: T2, Delta-type opioid receptor; test: Agonist activity at human delta opioid receptor expressed in CHO cells by [35S]GTPgammaS binding assay relative to SNC80; type: functional, cell-based

Kappa-type opioid receptor (Cavia porcellus, UniProt P41144), sequence (P41144 whole entry): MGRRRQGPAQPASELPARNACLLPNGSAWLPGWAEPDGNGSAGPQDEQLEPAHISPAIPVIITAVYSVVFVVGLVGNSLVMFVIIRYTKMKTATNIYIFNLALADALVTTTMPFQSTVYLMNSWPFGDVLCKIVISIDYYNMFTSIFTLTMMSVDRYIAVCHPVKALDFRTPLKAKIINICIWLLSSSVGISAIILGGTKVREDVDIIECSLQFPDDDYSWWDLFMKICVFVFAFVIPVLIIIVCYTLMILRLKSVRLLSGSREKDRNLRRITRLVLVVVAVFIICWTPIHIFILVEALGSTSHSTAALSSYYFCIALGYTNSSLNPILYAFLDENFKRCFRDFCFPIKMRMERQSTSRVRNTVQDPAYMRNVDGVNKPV

O=C1C[C@@H]2N(CN1Cc1ccccc1)[C@@]13CC[C@]2(O)C2Oc4c(O)ccc5c4C21CCN(CC1CC1)C3C5 (some centres undefined)
Ki [1]: 7.74 nM
Ratio Ki [2]: 0.09
Ki [3]: 3.83 nM
Ki (Mu-type opioid receptor [4]): 0.68 nM

Oc1ccc2c3c1OC1C34CCN(CC3CC3)C(C2)[C@]42CC[C@@]1(O)C=N2 (some centres undefined)
Ki [1]: 1.42 nM
Ratio Ki [2]: 0.2
Ki [3]: 6.12 nM
Ki (Mu-type opioid receptor [4]): 0.28 nM

O=C(NCc1ccccc1)[C@H]1N[C@@]23CC[C@]1(O)C1Oc4c(O)ccc5c4C12CCN(CC1CC1)C3C5 (some centres undefined)
Ki [1]: 0.23 nM
Ratio Ki [2]: 1.04
Ki [3]: 0.81 nM
Ki (Mu-type opioid receptor [4]): 0.24 nM

O=C1C[C@H]2N(CN1Cc1ccccc1)[C@@]13CC[C@]2(O)C2Oc4c(O)ccc5c4C21CCN(CC1CC1)C3C5 (some centres undefined)
Ki [1]: 1.54 nM
Ratio Ki [2]: 0.28
Ki [3]: 4.93 nM
Ki (Mu-type opioid receptor [4]): 0.43 nM

O=C(NCCc1ccccc1)C1=N[C@@]23CC[C@]1(O)C1Oc4c(O)ccc5c4C12CCN(CC1CC1)C3C5 (some centres undefined)
Ki [1]: 0.12 nM
Emax (Mu-type opioid receptor [5]): 44.9%
EC50 (Mu-type opioid receptor [6]): 1.09 nM
EC50 [7]: > 1000 nM
EC50 [8]: 0.18 nM
Emax [9]: 76.3%
Ratio Ki [2]: 3.5
Ki [3]: 0.86 nM
Ki (Mu-type opioid receptor [4]): 0.4 nM

O=C(C[C@H]1N[C@@]23CC[C@]1(O)C1Oc4c(O)ccc5c4C12CCN(CC1CC1)C3C5)NCc1ccccc1 (some centres undefined)
Ki [1]: 0.037 nM
Ratio Ki [2]: 1.42
Ki [3]: 0.15 nM
Ki (Mu-type opioid receptor [4]): 0.052 nM

O=C(Nc1ccccc1)C1=N[C@@]23CC[C@]1(O)C1Oc4c(O)ccc5c4C12CCN(CC1CC1)C3C5 (some centres undefined)
Ki [1]: 0.38 nM
Ratio Ki [2]: 0.95
Ki [3]: 0.32 nM
Ki (Mu-type opioid receptor [4]): 0.36 nM

CN(C(=O)/C=C/c1ccoc1)[C@@H]1CC[C@@]2(O)[C@H]3Cc4ccc(O)c5c4[C@@]2(CCN3CC2CC2)[C@H]1O5 [NALFURAFINE]
Emax (Mu-type opioid receptor [5]): 70.4%
EC50 (Mu-type opioid receptor [6]): 0.72 nM
Emax [10]: 55.2%

O=C(C[C@@H]1N[C@@]23CC[C@]1(O)C1Oc4c(O)ccc5c4C12CCN(CC1CC1)C3C5)NCc1ccccc1 (some centres undefined)
Ki [1]: 0.11 nM
Ratio Ki [2]: 1.16
Ki [3]: 1.12 nM
Ki (Mu-type opioid receptor [4]): 0.13 nM

O=C(NCc1ccccc1)[C@@H]1N[C@@]23CC[C@]1(O)C1Oc4c(O)ccc5c4C12CCN(CC1CC1)C3C5 (some centres undefined)
Ki [1]: 0.18 nM
Ratio Ki [2]: 0.83
Ki [3]: 0.45 nM
Ki (Mu-type opioid receptor [4]): 0.15 nM

O=C(NCc1ccccc1)C1=N[C@@]23CC[C@]1(O)C1Oc4c(O)ccc5c4C12CCN(CC1CC1)C3C5 (some centres undefined)
Ki [1]: 0.043 nM
Emax (Mu-type opioid receptor [5]): 101%
EC50 (Mu-type opioid receptor [6]): 0.4 nM
EC50 [7]: 1.7 nM
EC50 [8]: 0.033 nM
Emax [9]: 91.2%
Ratio Ki [2]: 3.25
Ki [3]: 0.61 nM
Ki (Mu-type opioid receptor [4]): 0.14 nM
Emax [10]: 93.2%
